Experimental data published in article PMC7265341, “Quantifying CDK inhibitor selectivity in live cells” (Nature Communications, 2020).
Where two headings read alike, the source gives them in different places.

How the values were obtained:
CDK17/Cyclin Y = CDK17/Cyclin Y (Homo sapiens, UniProt Q00537); assay: NanoBRET live-cell target engagement, CDK17-NanoLuc/Cyclin Y in HEK-293; assay type: binding; details: CDK17/Y; 10µM; read-out: Inhibition at 10µM (%) Replicate 2
CDK13/Cyclin K = CDK13/Cyclin K (Homo sapiens, UniProt Q14004); assay: NanoBRET live-cell target engagement, CDK13-NanoLuc/Cyclin K in HEK-293; assay type: binding; details: CDK13/K, 10µM
CDK19/Cyclin C = CDK19/Cyclin C (Homo sapiens, UniProt Q9BWU1); assay: NanoBRET live-cell target engagement, NanoLuc-CDK19/Cyclin C in HEK-293
CDK2/Cyclin E1 = CDK2/Cyclin E1 (Homo sapiens, UniProt P24941); assay: NanoBRET live-cell target engagement, CDK2-NanoLuc/Cyclin E1 in HEK-293; assay type: binding; details: CDK2/E1
CDK10/Cyclin L2 = CDK10/Cyclin L2 (Homo sapiens, UniProt Q15131); assay: NanoBRET live-cell target engagement, CDK10-NanoLuc/Cyclin L2 in HEK-293; details: 10µM
CDK11A/Cyclin L2 = biological target: T1, CDK11A/Cyclin L2 (Homo sapiens, UniProt Q9UQ88); assay: NanoBRET live-cell target engagement, CDK11A-NanoLuc/Cyclin L2 in HEK-293; assay type: binding; details: CDK11a/L2, 10µM
T1 sequence (Q9UQ88 1-783): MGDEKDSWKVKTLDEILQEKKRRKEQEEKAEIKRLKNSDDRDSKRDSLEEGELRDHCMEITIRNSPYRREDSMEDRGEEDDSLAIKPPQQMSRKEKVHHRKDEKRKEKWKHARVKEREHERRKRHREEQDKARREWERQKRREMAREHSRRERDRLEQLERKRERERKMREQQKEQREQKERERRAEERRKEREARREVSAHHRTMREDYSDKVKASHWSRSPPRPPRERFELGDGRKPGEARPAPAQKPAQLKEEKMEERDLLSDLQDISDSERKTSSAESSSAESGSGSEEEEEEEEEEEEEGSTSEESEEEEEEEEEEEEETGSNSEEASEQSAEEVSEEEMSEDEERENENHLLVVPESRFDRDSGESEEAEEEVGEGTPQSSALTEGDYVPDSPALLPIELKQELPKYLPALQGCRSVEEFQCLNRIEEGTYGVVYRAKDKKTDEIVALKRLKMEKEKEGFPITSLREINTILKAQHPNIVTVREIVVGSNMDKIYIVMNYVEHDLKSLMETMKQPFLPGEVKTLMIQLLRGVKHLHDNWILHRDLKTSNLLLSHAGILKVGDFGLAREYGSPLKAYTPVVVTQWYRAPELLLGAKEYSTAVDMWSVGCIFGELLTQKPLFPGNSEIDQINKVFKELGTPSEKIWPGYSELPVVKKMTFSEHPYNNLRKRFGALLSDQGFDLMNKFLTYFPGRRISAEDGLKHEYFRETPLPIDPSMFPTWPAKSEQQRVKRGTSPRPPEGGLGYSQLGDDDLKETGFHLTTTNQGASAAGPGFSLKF

CDK1/Cyclin E1 = CDK1/Cyclin E1 (Homo sapiens, UniProt P06493); assay: NanoBRET live-cell target engagement, CDK1-NanoLuc/Cyclin E1 in HEK-293; assay type: binding; details: CDK1/E1
CDK6/Cyclin D1 = CDK6/Cyclin D1 (Homo sapiens, UniProt Q00534); assay: NanoBRET live-cell target engagement, NanoLuc-CDK6/Cyclin D1 in HEK-293; assay type: binding; details: CDK6/D1
CDK18/Cyclin Y = CDK18/Cyclin Y (Homo sapiens, UniProt Q07002); assay: NanoBRET live-cell target engagement, CDK18-NanoLuc/Cyclin Y in HEK-293; assay type: binding; details: CDK18/Y, 10µM
CDK5/CDK5R1 = CDK5/CDK5R1 (Homo sapiens, UniProt Q00535); assay: NanoBRET live-cell target engagement, CDK5-NanoLuc/CDK5R1 in HEK-293; assay type: binding; details: CDK5/CDK5R1, 10µM
[1] = average of replicates, read-out: Inhibition at 10µM (%) Average
[2] = read-out: Inhibition at 10µM (%) Replicate 1
[3] = read-out: Inhibition at 10µM (%) Replicate 2
[4] = n=3 average ± SEM, n=2 average to 2 significant figures, read-out: IC50 (nM) Average*
[5] = read-out: IC50 (nM) Replicate 1
[6] = read-out: IC50 (nM) Replicate 2
[7] = read-out: IC50 (nM) Replicate 3

CDK13/Cyclin K, sequence (O75909 whole entry): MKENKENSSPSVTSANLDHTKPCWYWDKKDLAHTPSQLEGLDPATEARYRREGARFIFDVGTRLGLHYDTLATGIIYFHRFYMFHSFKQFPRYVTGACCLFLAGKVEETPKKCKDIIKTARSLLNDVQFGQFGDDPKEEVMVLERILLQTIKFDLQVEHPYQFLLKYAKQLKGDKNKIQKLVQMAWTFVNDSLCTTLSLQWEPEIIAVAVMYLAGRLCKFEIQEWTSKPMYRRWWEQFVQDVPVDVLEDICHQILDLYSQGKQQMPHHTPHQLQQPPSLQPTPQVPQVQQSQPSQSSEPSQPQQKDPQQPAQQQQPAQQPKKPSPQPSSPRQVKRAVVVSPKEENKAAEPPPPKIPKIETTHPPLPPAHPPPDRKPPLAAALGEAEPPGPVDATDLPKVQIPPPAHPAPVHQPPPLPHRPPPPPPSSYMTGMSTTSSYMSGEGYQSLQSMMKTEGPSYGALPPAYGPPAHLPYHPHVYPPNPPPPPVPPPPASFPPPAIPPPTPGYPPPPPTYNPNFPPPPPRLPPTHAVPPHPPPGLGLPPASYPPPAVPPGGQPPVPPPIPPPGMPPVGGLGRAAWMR
CDK13/Cyclin K, sequence (Q14004 other isoform, or with tags, fused parts or gaps): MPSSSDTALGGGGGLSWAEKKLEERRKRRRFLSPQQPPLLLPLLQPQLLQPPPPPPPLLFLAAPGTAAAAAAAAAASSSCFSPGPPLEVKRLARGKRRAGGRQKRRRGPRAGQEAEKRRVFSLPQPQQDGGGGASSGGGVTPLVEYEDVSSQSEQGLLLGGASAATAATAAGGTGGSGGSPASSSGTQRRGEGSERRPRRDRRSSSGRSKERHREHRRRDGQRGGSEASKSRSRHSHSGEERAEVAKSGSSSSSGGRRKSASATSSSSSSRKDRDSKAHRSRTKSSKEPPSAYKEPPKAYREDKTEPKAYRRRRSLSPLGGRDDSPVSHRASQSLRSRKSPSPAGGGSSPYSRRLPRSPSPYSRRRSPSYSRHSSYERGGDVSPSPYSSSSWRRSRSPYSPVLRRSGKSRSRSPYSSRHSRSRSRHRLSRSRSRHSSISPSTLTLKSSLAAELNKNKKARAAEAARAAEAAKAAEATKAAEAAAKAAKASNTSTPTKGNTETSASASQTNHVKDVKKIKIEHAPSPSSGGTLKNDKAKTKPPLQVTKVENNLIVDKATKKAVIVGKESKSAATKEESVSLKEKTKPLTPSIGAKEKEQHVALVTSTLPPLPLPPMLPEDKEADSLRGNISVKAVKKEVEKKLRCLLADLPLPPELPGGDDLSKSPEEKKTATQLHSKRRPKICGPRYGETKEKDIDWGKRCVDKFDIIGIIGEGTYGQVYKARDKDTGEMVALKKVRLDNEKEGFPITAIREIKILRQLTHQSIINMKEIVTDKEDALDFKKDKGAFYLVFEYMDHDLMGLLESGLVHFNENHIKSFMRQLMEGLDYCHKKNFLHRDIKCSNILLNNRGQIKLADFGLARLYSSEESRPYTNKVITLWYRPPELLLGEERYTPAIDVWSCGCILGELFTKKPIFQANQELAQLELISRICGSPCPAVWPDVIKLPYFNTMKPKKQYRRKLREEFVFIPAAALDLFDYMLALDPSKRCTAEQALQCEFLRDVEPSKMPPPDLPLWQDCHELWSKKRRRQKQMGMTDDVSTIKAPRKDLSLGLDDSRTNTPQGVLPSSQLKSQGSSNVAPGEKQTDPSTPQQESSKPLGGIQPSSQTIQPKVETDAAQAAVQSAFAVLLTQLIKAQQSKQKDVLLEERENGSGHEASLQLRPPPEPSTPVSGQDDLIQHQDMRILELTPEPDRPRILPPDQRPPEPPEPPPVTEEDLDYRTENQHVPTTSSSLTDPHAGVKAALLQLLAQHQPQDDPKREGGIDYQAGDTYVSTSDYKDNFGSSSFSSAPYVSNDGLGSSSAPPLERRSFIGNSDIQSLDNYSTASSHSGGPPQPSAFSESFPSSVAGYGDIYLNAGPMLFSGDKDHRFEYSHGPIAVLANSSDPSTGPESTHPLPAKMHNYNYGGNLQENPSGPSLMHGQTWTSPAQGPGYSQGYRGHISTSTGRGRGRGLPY
CDK19/Cyclin C, sequence (Q9BWU1 whole entry): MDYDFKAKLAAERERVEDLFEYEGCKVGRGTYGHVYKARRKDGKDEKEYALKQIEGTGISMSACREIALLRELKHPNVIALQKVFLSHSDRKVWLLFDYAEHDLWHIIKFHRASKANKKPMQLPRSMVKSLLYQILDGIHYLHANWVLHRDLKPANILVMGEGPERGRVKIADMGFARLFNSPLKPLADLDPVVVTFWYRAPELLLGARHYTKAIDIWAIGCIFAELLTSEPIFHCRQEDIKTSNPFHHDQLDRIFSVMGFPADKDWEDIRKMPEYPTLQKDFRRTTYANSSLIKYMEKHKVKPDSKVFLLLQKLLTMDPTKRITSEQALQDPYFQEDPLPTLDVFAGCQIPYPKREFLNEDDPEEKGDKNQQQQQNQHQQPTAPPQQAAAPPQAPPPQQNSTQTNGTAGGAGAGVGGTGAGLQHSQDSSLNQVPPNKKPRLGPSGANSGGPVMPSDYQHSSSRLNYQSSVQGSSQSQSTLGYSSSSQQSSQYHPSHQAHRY
CDK19/Cyclin C, sequence (P24863 whole entry partner): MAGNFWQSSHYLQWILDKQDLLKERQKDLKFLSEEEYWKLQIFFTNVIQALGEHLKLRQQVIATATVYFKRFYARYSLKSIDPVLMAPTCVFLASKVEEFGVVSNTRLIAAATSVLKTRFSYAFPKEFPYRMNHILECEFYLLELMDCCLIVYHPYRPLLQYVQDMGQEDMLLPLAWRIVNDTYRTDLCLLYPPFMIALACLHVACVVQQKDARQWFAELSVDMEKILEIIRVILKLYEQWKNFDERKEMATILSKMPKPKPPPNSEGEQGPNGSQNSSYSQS
CDK1/Cyclin E1, sequence (P06493 whole entry): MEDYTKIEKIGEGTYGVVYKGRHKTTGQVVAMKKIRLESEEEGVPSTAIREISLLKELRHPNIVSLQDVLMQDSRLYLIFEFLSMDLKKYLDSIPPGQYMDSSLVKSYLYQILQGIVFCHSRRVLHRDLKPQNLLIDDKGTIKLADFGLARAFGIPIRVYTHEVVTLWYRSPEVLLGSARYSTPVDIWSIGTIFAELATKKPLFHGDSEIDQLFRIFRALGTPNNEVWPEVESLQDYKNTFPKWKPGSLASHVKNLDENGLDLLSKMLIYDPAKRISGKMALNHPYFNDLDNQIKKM
CDK1/Cyclin E1, sequence (P24864 whole entry partner): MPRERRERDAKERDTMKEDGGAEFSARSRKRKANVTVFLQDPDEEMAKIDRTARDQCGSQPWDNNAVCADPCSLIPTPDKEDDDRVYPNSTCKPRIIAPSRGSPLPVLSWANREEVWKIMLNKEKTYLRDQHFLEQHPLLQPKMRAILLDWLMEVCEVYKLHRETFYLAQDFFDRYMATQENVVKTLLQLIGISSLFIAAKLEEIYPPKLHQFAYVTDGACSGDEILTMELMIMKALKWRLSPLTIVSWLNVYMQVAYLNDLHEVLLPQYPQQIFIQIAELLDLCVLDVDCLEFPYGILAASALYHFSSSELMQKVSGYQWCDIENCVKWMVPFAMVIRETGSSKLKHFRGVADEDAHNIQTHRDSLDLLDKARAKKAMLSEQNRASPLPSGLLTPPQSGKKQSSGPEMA
CDK6/Cyclin D1, sequence (Q00534 whole entry): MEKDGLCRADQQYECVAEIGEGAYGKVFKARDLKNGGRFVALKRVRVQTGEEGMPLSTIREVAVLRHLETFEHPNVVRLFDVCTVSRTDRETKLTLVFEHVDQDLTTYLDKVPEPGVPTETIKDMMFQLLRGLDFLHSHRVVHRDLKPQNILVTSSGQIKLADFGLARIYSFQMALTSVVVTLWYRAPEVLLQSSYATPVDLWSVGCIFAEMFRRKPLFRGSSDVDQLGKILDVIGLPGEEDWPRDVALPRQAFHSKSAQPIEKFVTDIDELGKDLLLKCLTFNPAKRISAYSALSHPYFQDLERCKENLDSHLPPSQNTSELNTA
CDK6/Cyclin D1, sequence (P24385 whole entry partner): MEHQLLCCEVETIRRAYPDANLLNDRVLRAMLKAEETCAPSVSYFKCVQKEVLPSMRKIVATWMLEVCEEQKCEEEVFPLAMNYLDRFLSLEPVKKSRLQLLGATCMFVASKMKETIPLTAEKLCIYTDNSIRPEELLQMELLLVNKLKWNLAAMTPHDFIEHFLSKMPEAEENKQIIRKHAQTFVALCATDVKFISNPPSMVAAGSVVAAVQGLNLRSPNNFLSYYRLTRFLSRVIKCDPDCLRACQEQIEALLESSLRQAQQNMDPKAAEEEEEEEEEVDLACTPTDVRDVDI
CDK10/Cyclin L2, sequence (Q15131 whole entry): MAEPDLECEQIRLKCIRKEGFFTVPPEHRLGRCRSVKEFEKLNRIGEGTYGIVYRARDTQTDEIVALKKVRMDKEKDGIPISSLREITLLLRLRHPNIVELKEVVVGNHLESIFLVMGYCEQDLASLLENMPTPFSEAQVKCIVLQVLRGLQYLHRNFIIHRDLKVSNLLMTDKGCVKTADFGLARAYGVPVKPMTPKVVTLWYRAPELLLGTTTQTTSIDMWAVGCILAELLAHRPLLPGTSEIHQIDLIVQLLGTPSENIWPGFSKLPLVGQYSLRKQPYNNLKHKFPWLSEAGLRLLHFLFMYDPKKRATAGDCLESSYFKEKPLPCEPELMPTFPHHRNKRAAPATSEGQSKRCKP

Structure (SMILES): CCCCOc1c(C(=O)c2c(F)cc(C)cc2F)c[nH]c2nncc1-2 [BMS-265246]
- inhibition at 10 µM (CDK17/Cyclin Y): 79.2%
- inhibition at 10 µM (CDK13/Cyclin K; [1]): 12.6%
- inhibition at 10 µM (CDK13/Cyclin K; [2]): 10.5%
- inhibition at 10 µM (CDK13/Cyclin K; [3]): 14.7%
- Kd (CDK19/Cyclin C): < 2 nM
- IC50 (CDK19/Cyclin C; IC50 (nM) Average*, CDK19/Y, n=3 average ± SEM, n=2 average to 2 significant figures): 1.47 ± 0.09 nM
- IC50 (CDK19/Cyclin C; IC50 (nM) Replicate 2, CDK19/C): 1.6 nM
- IC50 (CDK19/Cyclin C; IC50 (nM) Replicate 3, CDK19/C): 1.3 nM
- IC50 (CDK19/Cyclin C; IC50 for CDK/cyclin complexes, CDK19/C, live HEK-293, 2 h, mean ± S.E.M. (n=3) or mean (n=2)): 1.5 nM
- inhibition at 10 µM (CDK19/Cyclin C; read-out: Inhibition at 10µM (%) Average, CDK19/C, average of replicates): 95.1%
- inhibition at 10 µM (CDK19/Cyclin C; read-out: Inhibition at 10µM (%) Replicate 1, CDK19/C): 98.1%
- inhibition at 10 µM (CDK19/Cyclin C; read-out: Inhibition at 10µM (%) Replicate 2, CDK19/C): 92.2%
- inhibition at 10 µM (CDK2/Cyclin E1; [1]): 80.1%
- inhibition at 10 µM (CDK2/Cyclin E1; [2]): 77.4%
- inhibition at 10 µM (CDK2/Cyclin E1; [3]): 82.8%
- IC50 (CDK2/Cyclin E1; [4]): 22 ± 8 nM
- IC50 (CDK2/Cyclin E1; [5]): 29 nM
- IC50 (CDK2/Cyclin E1; [6]): 31 nM
- IC50 (CDK2/Cyclin E1; [7]): 6.6 nM
- inhibition at 10 µM (CDK10/Cyclin L2; read-out: Inhibition at 10µM (%) Average, CDK10/L2, average of replicates): 11.1%
- inhibition at 10 µM (CDK10/Cyclin L2; read-out: Inhibition at 10µM (%) Replicate 1, CDK10/L2): 5.3%
- inhibition at 10 µM (CDK10/Cyclin L2; read-out: Inhibition at 10µM (%) Replicate 2, CDK10/L2): 17%
- inhibition at 10 µM (CDK11A/Cyclin L2; [1]): 8.4%
- inhibition at 10 µM (CDK11A/Cyclin L2; [2]): 3.6%
- inhibition at 10 µM (CDK11A/Cyclin L2; [3]): 13.2%
- inhibition at 10 µM (CDK1/Cyclin E1; [1]): 44.4%
- inhibition at 10 µM (CDK1/Cyclin E1; [2]): 65.6%
- inhibition at 10 µM (CDK1/Cyclin E1; [3]): 23.1%
- IC50 (CDK1/Cyclin E1; [4]): 50 ± 20 nM
- IC50 (CDK1/Cyclin E1; [5]): 95 nM
- IC50 (CDK1/Cyclin E1; [6]): 39 nM
- IC50 (CDK1/Cyclin E1; [7]): 11 nM
- inhibition at 10 µM (CDK6/Cyclin D1; [1]): 68%
- inhibition at 10 µM (CDK6/Cyclin D1; [2]): 64.1%
- inhibition at 10 µM (CDK6/Cyclin D1; [3]): 71.8%
- IC50 (CDK6/Cyclin D1; [4]): 100 ± 30 nM
- IC50 (CDK6/Cyclin D1; [5]): 63 nM
- IC50 (CDK6/Cyclin D1; [6]): 70 nM
- IC50 (CDK6/Cyclin D1; [7]): 152 nM
- inhibition at 10 µM (CDK18/Cyclin Y; [1]): 89.2%
- inhibition at 10 µM (CDK18/Cyclin Y; [2]): 86.5%
- inhibition at 10 µM (CDK18/Cyclin Y; [3]): 92%
- inhibition at 10 µM (CDK5/CDK5R1; [1]): 35.1%
- inhibition at 10 µM (CDK5/CDK5R1; [2]): 36.3%
- inhibition at 10 µM (CDK5/CDK5R1; [3]): 33.9%
